Test results taken from ChEMBL document CHEMBL1201862, “PubChem BioAssay data set” (2004).
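Compound exposure: 48 hours, 5 concentrations, 96-well plates. GI50 = concentration required for 50% inhibition of growth.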 Calls of active or inactive are those of the source. No stated cut-off is given here; in the data, active = GI50 up to about 1.1 µM and inactive = higher.

Tests used:
Experiment in all cases: NCI anticancer screen, dose series, 48 h
SK-OV-3 = tested on: SK-OV-3
HCT-15 = tested on: HCT-15
NCI-H460 = tested on: NCI-H460
SF-295 = tested on: SF-295
RXF 393 = tested on: RXF 393
A549 = tested on: A549
MDA-MB-435 = tested on: MDA-MB-435
OVCAR-5 = tested on: OVCAR-5
HT-29 = tested on: HT-29
SK-MEL-2 = tested on: SK-MEL-2
SK-MEL-5 = tested on: SK-MEL-5
UACC-257 = tested on: UACC-257
M14 = tested on: M14
NCI/ADR-RES = tested on: NCI/ADR-RES
K562 = tested on: K562
COLO 205 = tested on: COLO 205
IGROV-1 = tested on: IGROV-1
SF-268 = tested on: SF-268
LOX IMVI = tested on: LOX IMVI

Measured: GI50

COc1cc2c(cc1OCCCCCOc1cc3c(cc1OC)C(=O)N1CCC[C@H]1C(=O)N3)N=C[C@@H]1CCCN1C2=O
3.08 µM: HCT-15
inactive: NCI/ADR-RES 7.8 µM
active: SK-OV-3 0.102 µM | NCI-H460 0.116 µM | SF-295 0.268 µM | RXF 393 0.175 µM | A549 0.716 µM | MDA-MB-435 0.124 µM | OVCAR-5 0.957 µM | HT-29 0.116 µM | SK-MEL-2 0.0809 µM | SK-MEL-5 0.1 µM | UACC-257 0.237 µM | M14 0.114 µM | K562 0.0453 µM | COLO 205 0.0177 µM | IGROV-1 0.132 µM | SF-268 0.0325 µM | LOX IMVI 0.0274 µM

CC1=CC(=O)[C@@H](O)[C@]2(C)[C@H]3[C@@]4(O)OC[C@@]35[C@@H](C[C@@H]12)OC(=O)C(OC(=O)CC1=CCCC1)[C@H]5[C@@H](C)[C@H]4O (some centres undefined)
0.0593 µM: HCT-15
active: SK-OV-3 0.551 µM | NCI-H460 0.023 µM | SF-295 0.0649 µM | RXF 393 0.04 µM | A549 0.28 µM | MDA-MB-435 0.0404 µM | OVCAR-5 0.105 µM | HT-29 0.0238 µM | SK-MEL-2 0.0547 µM | SK-MEL-5 0.0167 µM | UACC-257 0.022 µM | M14 0.0294 µM | NCI/ADR-RES 0.136 µM | K562 0.0246 µM | COLO 205 0.24 µM | IGROV-1 0.0188 µM | SF-268 0.0345 µM | LOX IMVI < 0.0177 µM

CC(=O)NC(CS)C(=O)O (centres undefined)
inactive: SK-OV-3 44200 µM | NCI-H460 18400 µM | SF-295 14600 µM | RXF 393 21900 µM | A549 15700 µM | MDA-MB-435 17800 µM | OVCAR-5 14500 µM | HT-29 14700 µM | SK-MEL-2 18500 µM | SK-MEL-5 14500 µM | UACC-257 21400 µM | M14 7360 µM | NCI/ADR-RES 22600 µM | K562 21700 µM | COLO 205 14600 µM | IGROV-1 2610 µM | SF-268 20900 µM | LOX IMVI > 100 µM
12900 µM: HCT-15

OC(c1ccc(F)cc1)(c1ccc(F)cc1)C1CC1
inactive: SK-OV-3 37.9 µM | NCI-H460 29 µM | SF-295 27.9 µM | RXF 393 26.9 µM | A549 26.6 µM | MDA-MB-435 23 µM | OVCAR-5 37.3 µM | HT-29 21.5 µM | SK-MEL-2 16.1 µM | SK-MEL-5 16.6 µM | UACC-257 26 µM | M14 21.5 µM | NCI/ADR-RES 21.3 µM | K562 31.4 µM | COLO 205 16.2 µM | IGROV-1 28.9 µM | SF-268 32.2 µM | LOX IMVI 20 µM
23 µM: HCT-15

Cc1ccc2c(=O)[nH]sc2c1
14.6 µM: HCT-15
inactive: SK-OV-3 > 100 µM | NCI-H460 53.3 µM | SF-295 54.5 µM | RXF 393 15.3 µM | A549 19 µM | MDA-MB-435 14.5 µM | OVCAR-5 94 µM | HT-29 16.7 µM | SK-MEL-2 37.7 µM | SK-MEL-5 12.9 µM | UACC-257 18.4 µM | M14 11.7 µM | NCI/ADR-RES 21.6 µM | K562 5.58 µM | COLO 205 3.82 µM | IGROV-1 19.7 µM | SF-268 19.9 µM | LOX IMVI 16.1 µM

Cc1[nH]n(-c2nc3c(c(=O)[nH]2)CCC3)c(=O)c1CCO
inactive: SK-OV-3 > 100 µM | NCI-H460 > 100 µM | SF-295 > 100 µM | RXF 393 > 100 µM | A549 > 100 µM | MDA-MB-435 > 100 µM | OVCAR-5 > 100 µM | HT-29 > 100 µM | SK-MEL-2 > 100 µM | SK-MEL-5 > 100 µM | UACC-257 > 100 µM | M14 > 100 µM | NCI/ADR-RES > 100 µM | K562 > 100 µM | COLO 205 > 100 µM | IGROV-1 > 100 µM | SF-268 > 100 µM | LOX IMVI > 100 µM
> 100 µM: HCT-15

O=C(C=P(c1ccccc1)(c1ccccc1)c1ccccc1)c1ccc(-c2cccs2)cc1
6.61 µM: HCT-15
inactive: SK-OV-3 5.66 µM | NCI-H460 3.97 µM | SF-295 4.17 µM | RXF 393 3.11 µM | A549 3.17 µM | MDA-MB-435 3.08 µM | OVCAR-5 5 µM | HT-29 3.75 µM | SK-MEL-2 1.39 µM | SK-MEL-5 2.17 µM | UACC-257 1.8 µM | M14 2.57 µM | NCI/ADR-RES 4.48 µM | K562 3.59 µM | IGROV-1 7.73 µM | SF-268 12.9 µM | LOX IMVI 4.57 µM
active: COLO 205 0.671 µM

CSC1=N/C(=C\c2ccco2)C(=O)N1CN1CCOCC1
33.7 µM: HCT-15
inactive: SK-OV-3 > 100 µM | NCI-H460 13.9 µM | SF-295 > 100 µM | RXF 393 20.4 µM | A549 > 100 µM | MDA-MB-435 > 62.2 µM | OVCAR-5 > 100 µM | HT-29 33.6 µM | SK-MEL-2 > 91.4 µM | SK-MEL-5 41.1 µM | UACC-257 29.7 µM | M14 > 92.3 µM | NCI/ADR-RES > 61.8 µM | K562 42.5 µM | COLO 205 38.5 µM | IGROV-1 > 61.1 µM | SF-268 > 44.4 µM | LOX IMVI 30.7 µM

O=C1O[C@]2(c3ccccc3)C(c3ccccc3)=C[C@]2(C(=O)c2ccccc2)C1=O
inactive: SK-OV-3 42.4 µM | NCI-H460 27.1 µM | SF-295 47 µM | A549 37.2 µM | MDA-MB-435 37.2 µM | OVCAR-5 > 100 µM | HT-29 55 µM | SK-MEL-2 27.2 µM | SK-MEL-5 31.8 µM | UACC-257 30.3 µM | M14 32.3 µM | NCI/ADR-RES 31.6 µM | K562 23 µM | COLO 205 48.2 µM | IGROV-1 33.1 µM | SF-268 38 µM | LOX IMVI 28.9 µM
active: RXF 393 0.05 µM
29.5 µM: HCT-15

Cn1c(COC(=O)NC2CCCCC2)c(COC(=O)NC2CCCCC2)c2ccc3cc(Cl)c(Cl)cc3c21
12.2 µM: HCT-15
inactive: SK-OV-3 22 µM | NCI-H460 4.41 µM | SF-295 22.8 µM | RXF 393 6.12 µM | A549 48.1 µM | MDA-MB-435 17.6 µM | OVCAR-5 16 µM | HT-29 27.5 µM | SK-MEL-2 14.1 µM | SK-MEL-5 11.7 µM | UACC-257 14.5 µM | M14 16.5 µM | NCI/ADR-RES 53.1 µM | K562 3.61 µM | COLO 205 11.7 µM | IGROV-1 17 µM | SF-268 6.4 µM | LOX IMVI 13.6 µM

Clc1ccc2c(NCCCC/N=C/c3ccccc3)ccnc2c1
inactive: SK-OV-3 10.1 µM | NCI-H460 11 µM | SF-295 10.4 µM | RXF 393 4.09 µM | A549 13.4 µM | MDA-MB-435 12.6 µM | OVCAR-5 13 µM | HT-29 5.18 µM | SK-MEL-2 11.8 µM | SK-MEL-5 13.5 µM | UACC-257 12.3 µM | M14 14.4 µM | NCI/ADR-RES 20.7 µM | K562 5.01 µM | COLO 205 4.53 µM | IGROV-1 11.8 µM | SF-268 14.2 µM | LOX IMVI 13.5 µM
17.8 µM: HCT-15
